Key:
[1] = test system: HOXA9; test: Test 3: inhibition of mRNA transcription, HOXA9 in MV4;11 cells; format: cell-based; conditions: 20 to 24 hours, relative to GAPDH
Description: (§1) MV4; 11 cells were obtained from American Type Culture Collection (ATCC). […] The expression level of each obtained gene (MEIS1 and HOXA9) was fitted with the expression level of mRNA of GAPDH.

[2] = test system: RS4; 11 cells; test: Test 2: inhibition of cell proliferation, RS4;11; format: cell-based; conditions: for IC50: Homo sapiens, RS4;11 cells, 7 days, PrestoBlue cell viability; for cell proliferation inhibition activity: statement in words, RS4;11 and MOLM-13 cells
Experimental: (§2) RS4; 11 cells were obtained from American Type Culture Collection (ATCC). […] MOLM-13 cells were separately obtained from DSMZ (Deutsche Sammlung von Mikroorganismen und Zellkulturen GmbH).
(§3) The cells were plated to a 96-well plate in 2000 cells/well, each test compound was added thereto to adjust the final concentration of DMSO to 0.1% of DMSO, and the cells were cultured for 7 days. After the cultivation, the cell viability was calculated with PrestoBlue™ Cell Viability Reagent (Invitrogen, A13261).

[3] = test system: MOLM-13 cells; test: Test 2: inhibition of cell proliferation, MOLM-13; format: cell-based; conditions: Homo sapiens, 7 days, PrestoBlue cell viability
Experimental: as §2, §3

[4] = target: hERG (human Ether-a-go-go Related Gene) (Homo sapiens (Human), UniProt Q12809); test: Test 4: hERG inhibition (QPatch HT, CHO cells stably expressing hERG); conditions: for hERG/RS4; 11: hERG IC50 divided by RS4;11 proliferation IC50
Sequence of hERG (human Ether-a-go-go Related Gene) (Q12809 whole entry): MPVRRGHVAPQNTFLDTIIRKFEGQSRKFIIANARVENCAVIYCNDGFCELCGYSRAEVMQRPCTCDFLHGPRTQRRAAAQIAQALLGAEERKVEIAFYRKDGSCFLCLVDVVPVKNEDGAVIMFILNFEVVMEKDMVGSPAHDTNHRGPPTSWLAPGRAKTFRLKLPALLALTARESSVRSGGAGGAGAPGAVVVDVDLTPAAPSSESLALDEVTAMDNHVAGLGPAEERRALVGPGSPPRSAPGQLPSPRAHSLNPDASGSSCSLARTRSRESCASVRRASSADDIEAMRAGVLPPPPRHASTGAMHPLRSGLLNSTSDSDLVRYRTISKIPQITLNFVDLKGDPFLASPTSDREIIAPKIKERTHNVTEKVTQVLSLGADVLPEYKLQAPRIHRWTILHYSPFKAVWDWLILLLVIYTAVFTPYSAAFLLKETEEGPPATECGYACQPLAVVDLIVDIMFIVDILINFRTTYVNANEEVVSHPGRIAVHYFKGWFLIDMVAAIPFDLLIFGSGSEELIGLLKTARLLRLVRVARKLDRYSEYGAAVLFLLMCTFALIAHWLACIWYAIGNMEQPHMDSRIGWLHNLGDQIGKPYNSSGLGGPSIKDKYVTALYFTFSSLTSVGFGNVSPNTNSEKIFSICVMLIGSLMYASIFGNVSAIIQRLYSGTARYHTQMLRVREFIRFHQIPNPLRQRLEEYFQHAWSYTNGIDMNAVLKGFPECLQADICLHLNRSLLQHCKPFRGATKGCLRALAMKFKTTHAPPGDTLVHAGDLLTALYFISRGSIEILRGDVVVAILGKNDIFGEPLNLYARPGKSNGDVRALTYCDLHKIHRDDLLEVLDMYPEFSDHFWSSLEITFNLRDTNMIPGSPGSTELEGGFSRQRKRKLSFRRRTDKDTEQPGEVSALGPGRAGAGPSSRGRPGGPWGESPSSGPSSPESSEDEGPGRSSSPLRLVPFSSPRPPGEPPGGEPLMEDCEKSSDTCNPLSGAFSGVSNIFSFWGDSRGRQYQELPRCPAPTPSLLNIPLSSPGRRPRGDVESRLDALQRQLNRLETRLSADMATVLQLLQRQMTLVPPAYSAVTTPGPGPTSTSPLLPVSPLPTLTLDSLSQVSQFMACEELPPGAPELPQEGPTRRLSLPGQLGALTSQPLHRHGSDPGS

[5] = target: Menin-MLL binding (His-Menin1-615 / MLL1-172-FLAG) (Homo sapiens (Human), UniProt O00255); test: Test 1: inhibition of the Menin-MLL binding (HTRF); conditions: for IC50: Menin-MLL binding inhibition; for Menin-MLL binding inhibition activity: statement in words on the table of Test 1
Sequence of Menin-MLL binding (His-Menin1-615 / MLL1-172-FLAG) (O00255 other isoform, or with tags, fused parts or gaps): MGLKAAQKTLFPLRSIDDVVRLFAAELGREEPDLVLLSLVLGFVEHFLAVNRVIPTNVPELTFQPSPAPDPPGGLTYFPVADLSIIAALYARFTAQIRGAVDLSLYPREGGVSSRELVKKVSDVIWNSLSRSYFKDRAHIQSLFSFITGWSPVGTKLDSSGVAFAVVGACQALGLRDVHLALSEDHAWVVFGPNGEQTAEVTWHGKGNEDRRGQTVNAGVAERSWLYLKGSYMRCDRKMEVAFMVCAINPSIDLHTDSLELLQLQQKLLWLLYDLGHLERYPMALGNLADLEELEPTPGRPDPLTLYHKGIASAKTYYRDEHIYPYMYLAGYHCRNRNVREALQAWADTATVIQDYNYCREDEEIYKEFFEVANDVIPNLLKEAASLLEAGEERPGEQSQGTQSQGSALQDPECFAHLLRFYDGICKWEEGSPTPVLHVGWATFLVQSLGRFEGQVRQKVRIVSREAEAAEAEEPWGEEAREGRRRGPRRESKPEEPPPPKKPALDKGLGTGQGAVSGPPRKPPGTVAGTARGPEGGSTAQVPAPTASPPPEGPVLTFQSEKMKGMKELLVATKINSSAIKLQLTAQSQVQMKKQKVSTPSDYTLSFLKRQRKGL
Experimental: After the incubation, the signal was detected with RUBYstar (BMG LABTECH).

[6] = test system: MEIS1; test: Test 3: inhibition of mRNA transcription, MEIS1 in MV4;11 cells; format: cell-based; conditions: for mRNA at 1 μM (% control) MEIS1: MV4;11 cells, 20 to 24 hours, relative to GAPDH; for mRNA transcription inhibition activity: statement in words, MEIS1 and HOXA9, MV4;11 cells
Description: as §1

Row | SMILES | mRNA at 1 μM (% control) HOXA9 [1] | IC50 [2] | cell proliferation inhibition activity [2] | IC50 [3] | IC50 [4] | gap between RS4; 11 proliferation IC50 and hERG current IC50 [4] | hERG/RS4; 11 [4] | IC50 [5] | Menin-MLL binding inhibition activity [5] | mRNA at 1 μM (% control) MEIS1 [6] | mRNA transcription inhibition activity [6]
1 | CC(C)N(C(=O)c1cc(F)ccc1Oc1cncnc1N1CC2(CCN(C(=O)[C@H]3N[C@H]4CC[C@@H]3C[C@@H]4CC3CC3)CC2)C1)C(C)C [Example 1, 2-[(4-{7-[(1S,3S,4R,6S)-6-(Cyclopropylmethyl)-2-azabicyclo[2.2.2]octane-3-carbonyl]-2,7-diazaspiro[3.5]nonan-2-yl}pyrimidin-5-yl)oxy]-5-fluoro-N,N-di(propan-2-yl)benzamide] | 40.2 % control | < 10 nM | potent | 20 nM | 4 µM | more than 100 fold | >400 | 5.3 nM | potent | 11.8 % control | showed the mRNA transcription inhibition activity
2 | CC(C)N(C(=O)c1cc(F)ccc1Oc1cncnc1N1CC2(CN(C(=O)[C@H]3N[C@H]4CC[C@@H]3C[C@@H]4CC3CC3)C2)C1)C(C)C [Example 3, 2-[(4-{6-[(1S,3S,4R,6S)-6-(cyclopropylmethyl)-2-azabicyclo[2.2.2]octane-3-carbonyl]-2,6-diazaspiro[3.3]heptan-2-yl}pyrimidin-5-yl)oxy]-5-fluoro-N,N-di(propan-2-yl)benzamide] | 39.6 % control | 30 nM | potent | 10 nM | 6.2 µM | more than 100 fold | 620 | < 3 nM | particularly potent | 11.9 % control | showed the mRNA transcription inhibition activity
3 | CC(C)N(C(=O)c1cc(F)ccc1Oc1cncnc1N1CC2(CN(C(=O)[C@H]3N[C@H]4CC[C@@H]3[C@@H](F)C4)C2)C1)C(C)C [Example 10, 5-fluoro-2-[(4-{6-[(1S,3S,4S,5S)-5-fluoro-2-azabicyclo[2.2.2]octane-3-carbonyl]-2,6-diazaspiro[3.3]heptan-2-yl}pyrimidin-5-yl)oxy]-N,N-di(propan-2-yl)benzamide] | 37.4 % control | 20 nM | potent | 30 nM | > 10 µM | more than 100 fold | >500 | < 3 nM | particularly potent | 13.3 % control | showed the mRNA transcription inhibition activity
